In patent US11413278B2, “Compounds and methods for promoting stress resistance” (priority 2015, dated 2022):
Where two headings read alike, the source gives them in different places.

Tests used:
mTOR = mTOR inhibition (RPS6 phosphorylation status), In-Cell Western; assay type: cell-based, human
How it was run: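 Read-out is In-Cell Western near-infrared imaging of phospho-RPS6 (Ser-235/236) against total RPS6, using overnight 4° C primary staining and DyLight 680/800 secondaries. Compounds were given to WI-38 cells for 24 hrs at three doses: 5, 10 and 20 μM.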

NRF2 [1] = assay: qPCR analysis of NRF2-regulated genes; assay type: cell-based, human; conditions: for fold induction at 10 µM: Homo sapiens
How it was run: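 Expression of HMOX1, NQO1, GCLC and GSTM1 measured by qPCR relative to B2M, PPIA and GAPDH. Cells were WI-38 fibroblasts exposed 24 hrs to 10 μM compound, with RNA and cDNA prepared via Cells-to-Ct. Where stated, cells were first transfected 36 hrs with FOXO3 or NRF2 siRNA at 10 nM.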

WI-38 cells = conditions: for No H2O2 stress treatment, at 10 uM (fold change): normalized ATP measurement; for Assay 1: H2O2-resistant: YES/NO, if NO, possibly due to repeated freezing/thawing of stocks
[2] = tested on: PC12 cells expressing poly(Q)103-Htt-EGFP; assay: Poly(Q) toxicity & viability analysis (cellular model of Huntington's disease); assay type: cell-based, rat; conditions: for M = Huntington's poly-Q toxicity attenuation: score; for K = Huntington's poly-Q toxicity attenuation: summary score
How it was run: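 Readout is CellTiter-Glo ATP content measured after 48 hrs. Cells are a PC12 line stably expressing inducible poly(Q)103-Htt-EGFP, where induction produces toxic aggregates.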

NRF2 [3] = assay: in vitro; assay type: cell-based, human; conditions: for NRF2-dependency for H2O2-resistance, at 10 uM - with H2O2, 1st experiment: experiment 1 (1st); for NRF2-dependency for H2O2-resistance, at 10 uM - with H2O2, 2nd experiment: experiment 2 (2nd); for NRF2-dependency for H2O2-resistance, 1st experiment / NRF2-dependency for H2O2-resistance, 2nd experiment: with H2O2, NRF2 knockdown in WI-38 cells, YES = resistance reduced by at least 50%, partial = 25% to 50%; for Assay 17: NRF2-dependency for H2O2-resistance: YES/NO; for NRF2-dependency of H2O2-resistance (NRF2 siRNA knockdown): at least 2 of 3 independent experiments
[4] = 24 h, Assay 12(o), at 10 uM, qPCR, read-out: Induction of NRF2-regulated genes: GCLC normalized fold-change
[5] = rounded fold change, WI-38 cells, 10 μM, 24 hrs, read-out: Summary of effects on NRF2-regulated genes: GCLC
[6] = 10 μM, 24 hrs, WI-38 cells, qPCR, normalized to B2M, n = 4, read-out: GCLC expression, normalized fold change (NRF2-regulated gene)
[7] = WI-38 cells, 10 μM, 24 hrs, n=4, qPCR normalized by B2M, read-out: GCLC Normalized fold change
[8] = WI-38 cells, 10 μM, 24 hrs, n=4, qPCR normalized by B2M, read-out: GSTM1 Normalized fold change
[9] = WI-38 cells, 10 μM, 24 hrs, n=4, qPCR normalized by B2M, read-out: HMOX1 Normalized fold change
[10] = WI-38 cells, 10 μM, 24 hrs, n=4, qPCR normalized by B2M, read-out: NQO1 Normalized fold change
[11] = WI-38 cells, 10 μM, (*) = compromised ability to protect cells from H2O2, could be due to stability issue
[12] = asterisks indicate the loss of the ability to protect cells from H2O2 over time
[13] = read-out: Est. ED50, dose response 0.6-20 μM, H2O2-resistance
[14] = derived from dose response curves, 0.6-20 uM, H2O2-resistance of WI-38 cells

SMILES | G = mTOR down-regulation (mTOR; 2-point score) | G = mTOR down-regulation (mTOR; summary score) | F = Potential NRF2 Activation (NRF2 [1]; 2-point score) | fold induction at 10 µM (NRF2 [1]; [4]) | fold induction at 10 µM (NRF2 [1]; [5]) | fold induction at 10 µM (NRF2 [1]; [6]) | fold induction at 10 µM (NRF2 [1]; [7]) | fold induction at 10 µM (NRF2 [1]; [8]) | fold induction at 10 µM (NRF2 [1]; [9]) | fold induction at 10 µM (NRF2 [1]; [10]) | F = Potential NRF2 Activation (NRF2 [1]; summary score) | H2O2-resistant (WI-38 cells; [11]) | No H2O2 stress treatment, at 10 uM (fold change) (WI-38 cells; WI-38 cells) | Assay 1: H2O2-resistant (WI-38 cells) | H2O2-resistant (WI-38 cells; [12]) | EC50 (WI-38 cells; [13]) | M = Huntington's poly-Q toxicity attenuation [2] | K = Huntington's poly-Q toxicity attenuation [2] | J = NRF2-dependency for H2O2-resistance (NRF2 [3]; score) | J = NRF2-dependency for H2O2-resistance (NRF2 [3]; summary score) | also measured
CC(C)(C)c1ccc(OCC(=O)Nc2ccc3c4c(cccc24)C(=O)NC3=O)cc1 [O22] | 0 | 0 | 0 | 0.66 | 0.66 | 0.66 | 0.659 | 0.877 | 0.765 | 0.929 | 0 | YES | 0.96 fold change | YES | YES | 20 µM | 0 | 0 | 1 | 1 | NRF2-dependency for H2O2-resistance, at 10 uM - with H2O2, 1st experiment (NRF2 [3]; 10 uM): 1st, partial;; NRF2-dependency for H2O2-resistance, at 10 uM - with H2O2, 2nd experiment (NRF2 [3]; 10 uM): 2nd, partial.; NRF2-dependency for H2O2-resistance, 1st experiment (NRF2 [3]; 10 uM): partial;; NRF2-dependency for H2O2-resistance, 2nd experiment (NRF2 [3]; 10 uM): partial.; Assay 17: NRF2-dependency for H2O2-resistance (NRF2 [3]; 10 uM): YES; NRF2-dependency of H2O2-resistance (NRF2 siRNA knockdown) (NRF2 [3]): significantly attenuate
COc1cccc(/C=C2\CN(C)C/C(=C\c3cccc(OC)c3OC)C2=O)c1OC [O23] | 0 | 0 | 0 | 0.67 | 0.67 | 0.67 | 0.668 | 0.595 | 12.9 | 0.477 | 0 | YES (*) | 0.76 fold change | YES | YES (*) | 4.9 µM | 0 | 0 | 1 | 1 | fold induction at 10 µM (NRF2 [1]; 24 h, Assay 12(o), at 10 uM, qPCR, read-out: Induction of NRF2-regulated genes: GSTM1 normalized fold-change): 0.6; fold induction at 10 µM (NRF2 [1]; 24 h, Assay 12(o), at 10 uM, qPCR, read-out: Induction of NRF2-regulated genes: HMOX1 normalized fold-change): 12.9; fold induction at 10 µM (NRF2 [1]; 24 h, Assay 12(o), at 10 uM, qPCR, read-out: Induction of NRF2-regulated genes: NQO1 normalized fold-change): 0.48; fold induction at 10 µM (NRF2 [1]; rounded fold change, WI-38 cells, 10 μM, 24 hrs (RP11 for Gr-1D, RP29 for Gr-4D), read-out: Summary of effects on NRF2-regulated genes: HMOX1): 12.9; fold induction at 10 µM (NRF2 [1]; rounded fold change, WI-38 cells, 10 μM, 24 hrs (RP29 for Gr-4D), read-out: Summary of effects on NRF2-regulated genes: GSTM1): 0.6; fold induction at 10 µM (NRF2 [1]; rounded fold change, WI-38 cells, 10 μM, 24 hrs (RP29 for Gr-4D), read-out: Summary of effects on NRF2-regulated genes: NQO1): 0.48; fold induction at 10 µM (NRF2 [1]; 10 μM, 24 hrs, WI-38 cells, qPCR, normalized to B2M, n = 4, read-out: GSTM1 expression, normalized fold change (NRF2-regulated gene)): 0.6; fold induction at 10 µM (NRF2 [1]; 10 μM, 24 hrs, WI-38 cells, qPCR, normalized to B2M, n = 4, read-out: HMOX1 expression, normalized fold change (NRF2-regulated gene)): 12.9; fold induction at 10 µM (NRF2 [1]; 10 μM, 24 hrs, WI-38 cells, qPCR, normalized to B2M, n = 4, read-out: NQO1 expression, normalized fold change (NRF2-regulated gene)): 0.48; EC50 (WI-38 cells; [14]): 4.9 µM; Survival of NRF2 siRNA-transfected cells in the absence of H2O2 (NRF2 [3]): could reduce the survival; NRF2-dependency for H2O2-resistance, at 10 uM - with H2O2, 1st experiment (NRF2 [3]; 10 uM): 1st, YES;; NRF2-dependency for H2O2-resistance, at 10 uM - with H2O2, 2nd experiment (NRF2 [3]; 10 uM): 2nd, YES.; NRF2-dependency for H2O2-resistance, 1st experiment (NRF2 [3]; 10 uM): YES;; NRF2-dependency for H2O2-resistance, 2nd experiment (NRF2 [3]; 10 uM): YES.; Assay 17: NRF2-dependency for H2O2-resistance (NRF2 [3]; 10 uM): YES; NRF2-dependency of H2O2-resistance (NRF2 siRNA knockdown) (NRF2 [3]): significantly attenuate; viability of non-stressed cells, reduced by (NRF2 [3]; human, 24 h, 10 uM): by 40%)
Oc1ccccc1-c1noc(-c2ccccc2O)n1 [O27] | 2 | 2 | 0 | – | – | – | – | – | – | – | 0 | YES | – | YES | YES | 12.7 µM | 0 | 0 | 0 | 0 | mTOR inhibition (p-RPS6/RPS6), qualitative (mTOR): consistently reduced the ratios; mTOR down-regulation by p-RPS6 assays (mTOR; Assay 14(q), at 5 uM, 10 uM & 20 uM): YES; EC50 (WI-38 cells; [14]): 12.7 µM
